In brackets after ≈: the same amount, converted by molar mass. Several values for one entry are separate records, joined by “and”; a condition that tells them apart may be missing. Equal values may be shown once. Read-outs that look alike come from different tables or passages of the source.
Assays:
Ent. Spp. = assay: MIC, microdilution broth, Ent. Spp. VRE clinical isolate; format: cell-based; details: Enterococcus, C28036, gyrA Ser83Ile, parC Ser80Ile
From the text: (§1) MRSA and P. aeruginosa isolates were from Cubist Pharmaceuticals (Lexington, MA). VRE isolates were from a previously published collection. E. coli strains were obtained either from ATCC or Professor Cari Vanderpool (UIUC). A. baumannii isolates were obtained from Dr John Quale[51].
(§2) Mueller Hinton (MH) broth was used.

S83R E. coli DNA gyrase = molecular target: T1, S83R E. coli DNA gyrase (Escherichia coli, UniProt P0AES4+P0AES6, S83R); format: biochemical; details: DNA cleavage assay
T1 construct: His tag (pTRCHisA vector; purified on Ni-NTA); made in house; host or cells: E. coli One Shot BL21 Star (DE3)

[1] = system: WT S. aureus (ATCC 29213, WT); assay: microbe, parasite or virus in culture; format: cell-based; details: WT GyrA and WT ParC, three independent replicates
VRE clinical isolates = assay: MIC, VRE clinical isolates panel (summary by GyrA mutation); format: cell-based, Enterococcus; details: panel of VRE clinical isolates (n=22)
From the text: as §1, §2

[2] = system: resistant strains of ATCC 29213; assay: microbe, parasite or virus in culture; format: cell-based, S. aureus
WT E. coli DNA gyrase = molecular target: T2, WT E. coli DNA gyrase (Escherichia coli, UniProt P0AES4+P0AES6); format: biochemical; details: DNA cleavage assay
T2 construct: His tag (pTRCHisA vector; purified on Ni-NTA); made in house; host or cells: E. coli One Shot BL21 Star (DE3)

E. faecalis = assay: microbe, parasite or virus in culture; format: cell-based; details: Enterococcus faecalis, E. faecalis
S. aureus (ATCC 29213) = assay: Resistant mutant generation (resistance frequency); format: cell-based; details: low-level CIP-resistant strain 29213-C1
[3] = Pharmacokinetic assessment; format: in vivo, C57BL/6 mice; details: for Cmax: read-out: Cmax (peak serum concentration)
Protocol: (§3) The animal studies (PK, in-vivo toxicity and in-vivo efficacy) were carried out in strict accordance with the recommendations in the Guide for the Care and Use of Laboratory Animals of the National Institutes of Health. […] In these studies, 10- to 12-week-old female C57BL/6 mice purchased from Charles River were used. DNM, DNM-2 and DNM-3 were formulated as slurries at 8.3 mg ml^−1 in 25% Cremophor RH40/water (v/v). Before beginning the pharmacokinetic assessment, mice were first tested for their ability to tolerate the DNM, DNM-2 and DNM-3 at 50 mg kg^−1 (p.o.). […] At specified time points, mice were killed and blood was collected, centrifuged and the serum was frozen at −80 °C until analysis. The proteins in a 50-μl aliquot of serum were precipitated by the addition of 50 μl of acetonitrile and the sample was centrifuged to remove the proteins. Serum concentrations of DNM, DNM-2 and DNM-3 were determined by HPLC. PK parameters were determined using GraphPad Prism Version 5.00 for Windows.

P. aeruginosa = assay: MIC, microdilution broth, P. aeruginosa; format: cell-based
From the text: as §1, §2

MRSA clinical isolates = assay: microbe, parasite or virus in culture; format: cell-based, S. aureus; details: for MIC: Staphylococcus aureus, MRSA, read-out: MIC
Method in brief: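 Broth microdilution per CLSI guidelines in Mueller Hinton broth, run in triplicate against clinical MRSA isolates.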

[4] = Tolerability in mice (maximal tolerated dose); format: in vivo
Protocol: as §3

E. coli = assay: microbe, parasite or virus in culture; format: cell-based; details: Escherichia coli
From the text: as §1, §2

physchem = details: pH 7.4
Protocol: Three independent replicates of each compound were performed.

E. faecium = assay: microbe, parasite or virus in culture; format: cell-based; details: Enterococcus faecium, E. faecium
A. baumannii = assay: MIC, microdilution broth, A. baumannii; format: cell-based; details: Acinetobacter baumannii
From the text: as §1, §2

[5] = female, C57BL/6, mouse, in vivo, C57/BL6 mice, 50 mg kg-1 oral gavage, serum

## CCn1c(=O)cc(C)c2cc3c(C)cc(=O)n4c3c(c21)OC4 [DNM-2]
Ent. Spp.
  MIC: 0.5 µg/mL (≈ 1.69 µM)
S83R E. coli DNA gyrase
  inhibition of S83R DNA gyrase: buildup of OC DNA similar to that seen with S83L DNA gyrase only at a slightly higher concentration or longer time points
[1]; ATCC 29213
  MIC against S. aureus 29213: 8 µg/mL (≈ 27 µM)
[1]; Staphylococcus aureus, ATCC29213, ATCC 29213, read-out: MIC against S. aureus 29213
  MIC: 8 µg/mL (≈ 27 µM)
VRE clinical isolates
  Sensitivity of VRE clinical isolates: sensitive
[2]; Staphylococcus aureus, ATCC29213, high-level CIP-resistant strains, second step, S84L mutation in GyrA
  MIC: 0.06 to 0.12 µg/mL (≈ 0.202 to 0.405 µM)
[2]; low-level CIP-resistant strains, first step, WT gyrA, mutation in ParC (for example E84K or S80F)
  MIC: not sensitive
WT E. coli DNA gyrase
  inhibition of WT DNA gyrase (increase in L or OC DNA): poor inhibitors of WT DNA gyrase
E. faecalis; ATCC19433, ATCC 19433, gyrA WT, parC WT
  MIC: 8 µg/mL (≈ 27 µM)
E. faecalis; ATCC29212, ATCC 29212, gyrA WT, parC WT
  MIC: 8 µg/mL (≈ 27 µM)
E. faecalis; C21667, gyrA Ser83Ile, parC Ser80Ile
  MIC: 0.5 µg/mL (≈ 1.69 µM)
E. faecalis; S206, gyrA Ser83 Arg, parC Ser80Ile
  MIC: 2 µg/mL (≈ 6.75 µM)
S. aureus (ATCC 29213)
  resistant colonies on treatment: resistant colonies were observed
[3]; [5]
  AUC: 44000 ng·h/mL
  Tmax: 1.2 h
  half-life: 0.9 h
[3]; female, C57BL/6, mouse, in vivo, mice, 50 mg kg^−1 oral dose, serum
  Cmax: 42.6 µM
[3]; female, C57BL/6, mouse, mice, 50 mg kg^−1 oral dose, serum
  Cmax: 12800 ng/mL and ~50 µM
[3]; mice, 50 mg kg^−1 oral dose
  oral bioavailability / serum exposure: good bioavailability
[3]; mice, 50 mg kg^−1 oral dose, serum
  area under the curve: 44000 ng·h/mL
P. aeruginosa; PA1586 (CIP resistant clinical isolate)
  MIC: > 24 µg/mL
P. aeruginosa; Pseudomonas aeruginosa, P. aeruginosa PAO1, read-out: MIC
  MIC: > 24 µg/mL
P. aeruginosa; Pseudomonas aeruginosa, read-out: MIC
  MIC: > 24 µg/mL
MRSA clinical isolates; strain SAU.1118
  MIC: 2 µg/mL (≈ 6.75 µM)
MRSA clinical isolates; strain SAU.2996
  MIC: 0.5 µg/mL (≈ 1.69 µM)
MRSA clinical isolates; strain SAU.3017
  MIC: 4 µg/mL (≈ 13.5 µM)
MRSA clinical isolates; strain SAU.3021
  MIC: 0.063 µg/mL (≈ 0.213 µM)
MRSA clinical isolates; strain SAU.3024
  MIC: 0.125 µg/mL (≈ 0.422 µM)
MRSA clinical isolates; strain SAU.3025
  MIC: 0.063 µg/mL (≈ 0.213 µM)
MRSA clinical isolates; strain SAU.42
  MIC: 2 µg/mL (≈ 6.75 µM)
MRSA clinical isolates; strain SAU.555
  MIC: 0.25 µg/mL (≈ 0.844 µM)
MRSA clinical isolates; strain SAU.669
  MIC: 0.063 µg/mL (≈ 0.213 µM)
MRSA clinical isolates; strain SAU.846
  MIC: 0.25 µg/mL (≈ 0.844 µM)
MRSA clinical isolates; panel of MRSA clinical isolates (n=21)
  Sensitivity of MRSA clinical isolates: sensitive
[4]; increasing doses, highest dose evaluated 50 mg kg^−1 by oral gavage
  tolerability: well tolerated up to the highest dose evaluated
[4]; oral gavage
  maximal tolerated dose: > 50 mg/kg
E. coli; ATCC25922, E. coli ATCC 25922, gyrA none, parC none
  MIC: > 24 µg/mL
E. coli; MG1655, E. coli MG1655
  MIC: > 24 µg/mL
E. coli; MG1655, E. coli MG1655 ∆AcrB (permeabilized strain)
  MIC: 2 µg/mL (≈ 6.75 µM)
physchem
  solubility at 1 h: 121 µM (≈ 35.9 µg/mL)
E. faecium; C21190, gyrA Ser83 Arg, parC Ser80Ile
  MIC: 8 µg/mL (≈ 27 µM)
E. faecium; C27282, gyrA Ser83 Arg, parC Ser80Arg
  MIC: 4 µg/mL (≈ 13.5 µM)
E. faecium; C27569, gyrA Ser83Ile, parC Ser80Ile
  MIC: 0.25 µg/mL (≈ 0.844 µM)
E. faecium; D1, gyrA Ser83Ile, parC Ser80Ile
  MIC: 0.5 µg/mL (≈ 1.69 µM)
E. faecium; S34, gyrA Ser83Ile, parC Ser80 Arg
  MIC: 1 µg/mL (≈ 3.37 µM)
E. faecium; S51, gyrA Ser83Ile, parC Ser80Ile
  MIC: 0.5 µg/mL (≈ 1.69 µM)
E. faecium; S122, gyrA Ser83Ile, parC Ser80Ile
  MIC: 0.5 µg/mL (≈ 1.69 µM)
E. faecium; S226, gyrA Ser83Ile, parC Ser80Ile
  MIC: 0.5 µg/mL (≈ 1.69 µM)
E. faecium; S235, gyrA Ser83Ile, parC Ser80Ile
  MIC: 0.5 µg/mL (≈ 1.69 µM)
E. faecium; S344, gyrA Ser83Ile, parC Ser80Ile
  MIC: 0.5 µg/mL (≈ 1.69 µM)
E. faecium; S557, gyrA Ser83Ile, parC Ser80Ile
  MIC: 0.25 µg/mL (≈ 0.844 µM)
E. faecium; SL152, gyrA Ser83Ile, parC Ser80Ile
  MIC: 0.5 µg/mL (≈ 1.69 µM)
E. faecium; U63, gyrA Ser83 Arg, parC Ser80Ile
  MIC: 4 µg/mL (≈ 13.5 µM)
E. faecium; U275, gyrA Ser83Cys Glu87Gly, parC Ser80Ile
  MIC: 2 µg/mL (≈ 6.75 µM)
E. faecium; U464, gyrA Ser83 Arg, parC Ser80Ile
  MIC: 2 µg/mL (≈ 6.75 µM)
E. faecium; U503, gyrA Ser83 Arg, parC Ser80Ile
  MIC: 4 µg/mL (≈ 13.5 µM)
E. faecium; U563, gyrA Ser83 Arg, parC Ser80Ile
  MIC: 2 µg/mL (≈ 6.75 µM)
A. baumannii
  MIC: > 24 µg/mL
A. baumannii; ATCC19606, A. baumannii ATCC 19606, read-out: MIC
  MIC: > 24 µg/mL
